Laboratory results as given in publication doi:10.1101/2025.07.20.665728 (bioRxiv, 2025).
pIC50: −log10 of the molar value. “And” between values parts separate entries of the source, which are not always exact repeats. Identical values can stand only once. Like-named read-outs stand apart in the source and are kept apart here.

How the values were obtained:
hMR1 protein = biological target: T1, hMR1 protein (Homo sapiens, UniProt Q95460); assay: Fluorescence polarization (FP)-based cell-free MR1 binding assay (competition with JYM20)
T1 construct: plasmids encoding for the extracellular domains of MR1, β2m, and the AF-7 TCRα and TCRβ chains; made in house

[1] = biological target: T2, human MR1-β2-microglobulin (β2m) complex (Homo sapiens, UniProt Q95460); assay: In vitro refolding of MR1-β2m co-complex with ligand; assay type: binding; details: ligand added to refolding buffer
T2 construct: plasmids encoding for the extracellular domains of MR1, β2m, and the AF-7 TCRα and TCRβ chains; made in house
Source text: We then assessed the capacity of RF and its catabolites to be loaded within recombinant MR1. The human MR1-β2-microglobulin (β2m) complex can only co-purify when the MR1 Ag-binding pocket is occupied with ligand ([Kjer-Nielsen et al., 2012]). […] Next, we examined how these catabolites could stabilize MR1 using an in vitro MR1-Ag complexes through thermostability assay ([Eckle et al., 2014]) (Fig. 1H). Here, the half-maximum melting temperatures (Tm50) of the stable complexes MR1-5-OP-RU and MR1-Ac-6-FP were 58.65 ± 0.42 and 62.12 ± 0.37 °C; respectively, consistent with previous values ([Eckle et al., 2014]). […] Thus, the binding of these ligands stabilizes the MR1 protein but to a lower extent in comparison to MR1-5-OP-RU and MR1-Ac-6-FP (Fig. 1H).
Escherichia coli BL21(DE3) cells were transformed with plasmids encoding for the extracellular domains of MR1, β2m, and the AF-7 TCRα and TCRβ chains ([Kjer-Nielsen et al., 2012]; [Patel et al., 2013]; [Wang et al., 2022a]). The proteins were then expressed, and the inclusion bodies were purified, cleaned, and used for refolding. For both MR1 and AF-7 TCR, inclusion bodies were refolded through rapid dilution overnight as previously mentioned ([Keller et al., 2017]). To refold MR1 with ligands, 58 mg MR1 inclusion bodies along with 30 mg of β2m inclusion bodies were placed in a 500 ml of refold buffer consisting of 0.1 M Tris pH 8.0, 5 M of urea, 2 mM EDTA, 2.5 mM oxidized glutathione, 20 mM reduced glutathione and 0.4 M of L-arginine for 16 h at 4° C. Ligands were dissolved in dilute NaOH and added directly into the refolding buffer. […] The refolded MR1-ligand complex was dialyzed against 10 mM Tris pH 8.0 overnight and purified using size-exclusion (Superdex 200, GE Healthcare) and anion-exchange (HiTrapQ, GE Healthcare) chromatography techniques ([Awad et al., 2020a]).

C1R.MR1 cells [2] = assay: Competition with Ac-6-FP/5-OP-RU-induced MR1 upregulation, C1R.MR1; assay type: cell-based; details: for reduction of Ac-6-FP response: 200 μM (highest concentration), overnight, cell line not given
[3] = system: SKW-3 cells expressing MBV28 (TRAV1-2/TRBV28) TCR; assay: MAIT cell activation assay, SKW-3 MBV28 TCR co-cultured with C1R.MR1; assay type: cell-based; details: for 5-OP-RU-induced activation (CD69): SKW-3 MBV28, in presence of 1 nM 5-OP-RU
Method: Next, we explored whether RF catabolites could activate SKW-3 cells expressing two different MAIT TCRs. Distinct responses of T cells expressing TCRs with varying TRBV chain usage reinforces the role of Vβ in modulating MAIT responses to various ligands ([Chancellor et al., 2023]; [Gherardin et al., 2016]; [Seneviratna et al., 2022]).The surface expression of CD69 was measured as a marker for activation of cells expressing the AF-7 (TRAV1-2/TRBV6-1) or MBV28 (TRAV1-2/TRBV28) TCRs after co-culture with C1R.MR1 cells and the ligands.
C1R.MR1 cells (1 x 10^5) were initially stained with CTV for 15 minutes and then incubated with RF catabolites for 20 h. […] Cells were subsequently stained with PE-Cy7-conjugated anti-CD69 (BD; 1:100) and PE-labelled anti-MR1 (26.5 clone; BD; 1:100), before analysis on LSRFortessa (BD Biosciences) flow cytometer. Activation of SKW-3-MAIT cells was reflected by the cell-surface CD69 expression.

MAIT cells in human PBMC = assay: Primary MAIT activation (CD69) in PBMCs; assay type: cell-based; details: 16 h, co-incubation with 5-OP-RU
C1R.MR1 cells [4] = assay: Intracellular total folded MR1 by flow cytometry (8F2.F9); assay type: cell-based; details: C1R.MR1, 100 μM, 16 h
[5] = competition with 10 nM JYM20 for 100 nM empty hMR1, 37°C, read-out: IC50

T2 sequence (Q95460 23-302 limits assumed): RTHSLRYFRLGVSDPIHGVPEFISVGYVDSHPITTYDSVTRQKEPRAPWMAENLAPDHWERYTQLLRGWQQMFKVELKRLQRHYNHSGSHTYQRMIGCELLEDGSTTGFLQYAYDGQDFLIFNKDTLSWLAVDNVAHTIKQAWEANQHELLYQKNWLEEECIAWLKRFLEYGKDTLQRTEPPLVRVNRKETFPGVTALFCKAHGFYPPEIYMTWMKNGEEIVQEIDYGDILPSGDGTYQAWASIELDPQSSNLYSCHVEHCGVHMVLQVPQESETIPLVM
T2 sequence (P61769 21-119 partner): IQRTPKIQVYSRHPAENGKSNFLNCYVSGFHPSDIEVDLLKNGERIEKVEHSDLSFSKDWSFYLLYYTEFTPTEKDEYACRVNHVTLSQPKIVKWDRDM
T1 sequence (Q95460 23-302 limits assumed): as the sequence (Q95460 23-302 limits assumed) above
T1 sequence (P61769 21-119 partner): as the sequence (P61769 21-119 partner) above

SMILES	pIC50 (hMR1 protein; [5])	folding of the MR1-β2m co-complex in solution [1]	effect on Ac-6-FP-induced cell surface upregulation of MR1 (C1R.MR1 cells [2]; C1R.MR1, 1–200 μM overnight, then 10 μM Ac-6-FP 3 h)	effect on 5-OP-RU-induced cell surface upregulation of MR1 (C1R.MR1 cells [2]; C1R.MR1, 1–200 μM overnight, then 5-OP-RU 3 h)	5-OP-RU-induced activation (CD69) [3]	competition with 5-OP-RU for MAIT activation (CD69) (MAIT cells in human PBMC)	total level of folded MR1 (intracellular staining with 8F2.F9) (C1R.MR1 cells [4])	reduction of Ac-6-FP response (C1R.MR1 cells [2]; then 10 μM Ac-6-FP 3 h)	CD69 surface expression (activation) ([3]; SKW-3 MBV28, ligand alone)	MR1 expression on C1R.MR1 in co-culture ([3]; SKW-3 MBV28 co-culture with 5-OP-RU)	pIC50 (hMR1 protein; IC50, competition with 10 nM JYM20 for 100 nM empty hMR1, 37°C)
Cc1cc2nc3c(=O)[nH]c(=O)nc-3n(C[C@H](O)[C@H](O)[C@H](O)CO)c2cc1C [RF, Riboflavin]	~3.74 and 3.74	did not sponsor refolding	did not modulate	did not modulate	could not compete with 5-OP-RU	potent concentration-dependent competition	–	–	–	–	–
Cc1cc2nc3[nH]c(=O)[nH]c(=O)c3nc2cc1C [Lumichrome, 7,8-dimethylalloxazine]	4.90	facilitated the correct folding	–	–	enhanced the 5-OP-RU-induced CD69 expression	most potent competitor	also increased the total level of folded MR1	more than 80%	minor reductions in CD69	dose-dependent reduction in MR1 expression	–
Cc1cc2nc3c(=O)[nH]c(=O)nc-3n(C)c2cc1C [Lumiflavin]	–	facilitated the correct folding	–	–	–	–	–	more than 80%	–	–	4.64
O=c1nc2[nH]c3ccccc3nc-2c(=O)[nH]1 [Alloxazine, alloxazine]	4.87	facilitated the correct folding	–	–	could interfere with the 5-OP-RU-induced activation of MBV28 in a dose-dependent manner	–	also increased the total level of folded MR1	more than 80%	–	–	–
